Source: PubChem BioAssay (NCI)
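In this assay, cells in 96-well plates receive the compound at five concentrations for 48 hours. Endpoints are linearly interpolated between the surrounding concentrations. GI50 = concentration required for 50% inhibition of growth. TGI: concentration producing complete growth inhibition.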

Tests used:
Test in all cases: NCI tumour cell line growth inhibition, 48 h
NCI-H23 lung = test system: NCI-H23 lung
NCI/ADR-RES ovarian = test system: NCI/ADR-RES ovarian
OVCAR-8 ovarian = test system: OVCAR-8 ovarian
COLO 205 colon = test system: COLO 205 colon
M14 melanoma = test system: M14 melanoma
LOX IMVI melanoma = test system: LOX IMVI melanoma
MOLT-4 leukemia = test system: MOLT-4 leukemia
ACHN renal = test system: ACHN renal
DU-145 prostate = test system: DU-145 prostate
BT-549 breast = test system: BT-549 breast

Row | SMILES | GI50 (NCI-H23 lung) | TGI (NCI-H23 lung) | GI50 (NCI/ADR-RES ovarian) | TGI (NCI/ADR-RES ovarian) | GI50 (OVCAR-8 ovarian) | TGI (OVCAR-8 ovarian) | GI50 (COLO 205 colon) | TGI (COLO 205 colon) | GI50 (M14 melanoma) | TGI (M14 melanoma) | GI50 (LOX IMVI melanoma) | TGI (LOX IMVI melanoma) | GI50 (MOLT-4 leukemia) | TGI (MOLT-4 leukemia) | GI50 (ACHN renal) | TGI (ACHN renal) | GI50 (DU-145 prostate) | TGI (DU-145 prostate) | GI50 (BT-549 breast) | TGI (BT-549 breast)
1 | Nc1nc(N)c2nc3c(nc2n1)CCCCCCCCCC3 | 2.86 µM | > 100 µM | 2.4 µM | > 100 µM | 1.99 µM | > 100 µM | 6.83 µM | > 100 µM | 0.544 µM | > 100 µM | 0.733 µM | > 100 µM | 3.83 µM | > 100 µM | 2.98 µM | > 100 µM | 2.78 µM | > 100 µM |  | 
2 | CCCCOC1OC(COC(=O)C(C)C)C(OC(=O)C(C)C)C(O)C1OC1OC(C)C(OC(=O)CCC)C(OC(=O)C(C)C)C1O (centres undefined) | 14 µM | 27 µM | 3.85 µM | 11.7 µM | 19.6 µM | 37.8 µM | 13.1 µM | 25.8 µM |  |  | 13.3 µM | 26.1 µM | 1.71 µM | 4.12 µM | 14.9 µM | 28.1 µM | 16.3 µM | 29.8 µM | 22.1 µM | 37.7 µM
3 | NC(=O)NC1C(C(=O)O)N(Cc2ccccc2)C(=O)N1Cc1ccccc1 (centres undefined) |  | > 100 µM |  |  |  | > 100 µM |  | > 100 µM |  | > 100 µM |  | > 100 µM |  | 10.9 µM |  | > 100 µM |  |  |  | 
4 | CC([O-])=C1C(=O)c2ccccc2C1=O.CC([O-])=C1C(=O)c2ccccc2C1=O.CC[O-].CC[O-].[Ti+4] | > 100 µM | > 100 µM |  |  | > 100 µM | > 100 µM | 91.7 µM | > 100 µM | > 100 µM | > 100 µM | > 100 µM | > 100 µM | > 100 µM | > 100 µM | > 100 µM | > 100 µM |  |  |  | 
5 | O=C1CCCCC12CCC/C2=N\O (centres undefined) |  |  |  |  |  | > 100 µM |  | > 100 µM |  | > 100 µM |  |  |  | > 100 µM |  | > 100 µM |  |  |  | 
6 | CC(=O)NC(C=O)C(O[C@H](C)C(=O)NC(C)C(=O)NC(CCC(N)=O)C(=O)OCc1ccccc1)C(O)C(O)COC(=O)CCNc1c2ccccc2nc2cccc([N+](=O)[O-])c12 (some centres undefined) |  | 9.45 µM |  |  |  | 18.7 µM |  | 2.74 µM |  | 4.58 µM |  | 31.3 µM |  | 14.8 µM |  |  |  |  |  | 
7 | COc1cccc(N2C(=O)C3C4C=C5c6ccccc6N(c6ccccc6)C5(C3C2=O)[C@H]2C(=O)N(c3cccc(OC)c3)C(=O)[C@@H]42)c1 (some centres undefined) |  | > 100 µM |  |  |  | > 100 µM |  | > 100 µM |  | > 100 µM |  | > 100 µM |  | > 100 µM |  |  |  |  |  | 
8 | O=C(O)c1c(Br)c(Br)c(Br)c(Br)c1C1c2ccc(O)cc2Oc2cc(O)ccc21 |  |  |  | > 100 µM |  | > 100 µM |  | > 100 µM |  | > 100 µM |  | > 100 µM |  | > 100 µM |  | > 100 µM |  | > 100 µM |  | > 100 µM
9 | CCC1(CN(C)C)CC/C(=C\c2ccc(OC)c(OC)c2)C1=O (centres undefined) |  | > 100 µM |  |  |  | > 100 µM |  | > 100 µM |  | > 100 µM |  | > 100 µM |  | > 100 µM |  | > 100 µM |  |  |  | 
10 | COc1ccc(C(=O)c2sc3nc(-c4cccs4)ccc3c2N)cc1OC |  |  | 3.61 µM | > 100 µM | 5.56 µM | > 100 µM | 5.35 µM | > 100 µM | 4.27 µM | > 100 µM | 6.73 µM | > 100 µM | 3.78 µM | 18 µM | 9.26 µM | > 100 µM | 16 µM | > 100 µM | 3.82 µM | > 100 µM
11 | COCCOCCOCCOc1cccc2c1C(=O)c1cccc(OCCOCCOCCOC)c1C2=O |  | > 100 µM |  |  |  | > 100 µM |  | > 100 µM |  | > 100 µM |  | > 100 µM |  | > 100 µM |  | > 100 µM |  |  |  | 
12 | CC(=O)c1ccc(NC(=O)C(=O)C(C#N)CC(C)(C)C=O)cc1 (centres undefined) |  | > 100 µM |  |  |  | > 100 µM |  | > 100 µM |  | > 100 µM |  | > 100 µM |  | > 100 µM |  | > 100 µM |  |  |  | 
13 | CN(CCCCCl)P(=O)(OCc1ccc([N+](=O)[O-])o1)OCC1OC(n2cnc([N+](=O)[O-])c2N)C(O)C1O (centres undefined) | > 100 µM | > 100 µM | > 100 µM | > 100 µM | > 100 µM | > 100 µM | > 100 µM | > 100 µM |  |  | > 100 µM | > 100 µM | > 100 µM | > 100 µM | > 100 µM | > 100 µM | > 100 µM | > 100 µM | > 100 µM | > 100 µM
14 | C=C(C(=C)P(=S)(C(C)C)C(C)C)P(=S)(C(C)C)C(C)C |  | > 100 µM |  |  |  | > 100 µM |  | > 100 µM |  | > 100 µM |  | > 100 µM |  | > 100 µM |  | > 100 µM |  |  |  | 
15 | COc1cc2c(c(OC)c1OC)-c1ccc(N=NC(N)=S)c(=O)cc1[C@@H](NC(C)=O)CC2 | 0.347 µM | > 100 µM | 17.5 µM | 49.1 µM | 2.19 µM | > 100 µM | 0.26 µM | 0.682 µM |  |  | 0.618 µM | > 100 µM | 1.3 µM | > 100 µM | 5.08 µM | > 100 µM | 0.655 µM | 4.66 µM | 0.624 µM | > 100 µM
16 | Cc1cc(Cl)ccc1C(=O)c1ccc2ccccc2c1C(=O)O |  | > 100 µM |  | > 100 µM |  | > 100 µM |  | > 100 µM |  | > 100 µM |  |  |  | > 100 µM |  | > 100 µM |  | > 100 µM |  | > 100 µM
17 | CCCCCCCCCCCc1c(O)c(=O)c2c(oc3c(=O)c(CCCCCCCCCCC)c(O)c(=O)c3n2-c2ccc(N(C)C)cc2)c1=O |  | 47.1 µM |  |  |  | 51.5 µM |  | 38.1 µM |  | 32.8 µM |  | 50.7 µM |  | > 100 µM |  | 42.8 µM |  |  |  | 
18 | COc1ccc(C(=O)C#Cc2c[nH]c(=O)[nH]c2=O)cc1 |  | 32.8 µM |  |  |  | 32.5 µM |  | 24.8 µM |  | 18 µM |  | 9.52 µM |  | 8.19 µM |  | 30.5 µM |  |  |  | 
19 | CC1OC(CC(=O)O)CC2=C1C(=O)c1c(O)cccc1C2=O (centres undefined) |  | 1.51 µM |  |  |  | 1.1 µM |  | 0.169 µM |  | 0.389 µM |  | 0.111 µM |  | 0.115 µM |  | 0.658 µM |  | 2.5 µM |  | 0.361 µM
20 | O=c1c2cc3c(cc2c2cccc4c2n1CCC4)OCO3 |  | > 100 µM |  |  |  | > 100 µM |  | > 100 µM |  | > 100 µM |  | > 100 µM |  | > 100 µM |  | > 100 µM |  |  |  | 
